In one test the target is T1, TLR7 (Homo sapiens, UniProt Q9NYK1).
T1 construct: human HEK-Blue cells co-expressing a TLR7 or TLR8 gene
T1 sequence (Q9NYK1 27-1049): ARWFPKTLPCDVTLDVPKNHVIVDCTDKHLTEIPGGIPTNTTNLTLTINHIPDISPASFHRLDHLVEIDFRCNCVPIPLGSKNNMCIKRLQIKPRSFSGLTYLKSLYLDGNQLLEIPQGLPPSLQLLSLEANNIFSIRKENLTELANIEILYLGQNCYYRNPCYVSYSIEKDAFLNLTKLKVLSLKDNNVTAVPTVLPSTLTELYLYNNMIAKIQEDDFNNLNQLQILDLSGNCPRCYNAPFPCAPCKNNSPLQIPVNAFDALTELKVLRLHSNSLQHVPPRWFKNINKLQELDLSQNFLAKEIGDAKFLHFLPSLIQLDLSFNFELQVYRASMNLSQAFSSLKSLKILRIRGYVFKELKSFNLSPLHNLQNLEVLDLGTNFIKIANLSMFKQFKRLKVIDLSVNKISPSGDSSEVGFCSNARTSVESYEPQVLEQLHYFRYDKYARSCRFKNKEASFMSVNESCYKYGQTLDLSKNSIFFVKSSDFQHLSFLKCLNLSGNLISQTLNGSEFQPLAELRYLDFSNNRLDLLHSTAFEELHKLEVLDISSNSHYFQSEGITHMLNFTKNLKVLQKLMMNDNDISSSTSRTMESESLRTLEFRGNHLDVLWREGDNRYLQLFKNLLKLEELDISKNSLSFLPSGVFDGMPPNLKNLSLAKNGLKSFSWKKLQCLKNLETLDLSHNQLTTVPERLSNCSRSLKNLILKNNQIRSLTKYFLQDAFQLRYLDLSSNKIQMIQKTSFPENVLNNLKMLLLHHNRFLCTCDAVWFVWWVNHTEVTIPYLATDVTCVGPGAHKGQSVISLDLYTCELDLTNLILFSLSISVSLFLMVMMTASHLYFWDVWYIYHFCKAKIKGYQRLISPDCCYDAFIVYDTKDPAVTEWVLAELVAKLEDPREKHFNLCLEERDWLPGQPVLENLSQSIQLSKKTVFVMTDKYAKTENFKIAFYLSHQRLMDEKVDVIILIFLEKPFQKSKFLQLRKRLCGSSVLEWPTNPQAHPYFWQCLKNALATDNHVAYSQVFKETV
Nature of the test: In vitro human TLR7 binding reporter assay (HEK-Blue, NF-kB/AP1-inducible SEAP). It counts as cell-based. The conditions noted are these: activity range class, read-out: TLR7 Agonist EC50. The procedure, abridged:
(§1)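 HEK-Blue cells expressing human TLR7 or TLR8 with NF-kB/AP1-inducible SEAP reporter, plated 24 h, then compound-treated 18 h at 37° C, 5% CO2. EC50 normalized to 100% Ymax set by 50 μM reference standard.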
Background: Reporter assays use an easily measured gene product as a stand-in for the process of interest.

Another test concerns the target T2, TLR8 (Homo sapiens, UniProt Q9NR97).
T2 construct: human HEK-Blue cells co-expressing a TLR7 or TLR8 gene
T2 sequence (Q9NR97 27-1041): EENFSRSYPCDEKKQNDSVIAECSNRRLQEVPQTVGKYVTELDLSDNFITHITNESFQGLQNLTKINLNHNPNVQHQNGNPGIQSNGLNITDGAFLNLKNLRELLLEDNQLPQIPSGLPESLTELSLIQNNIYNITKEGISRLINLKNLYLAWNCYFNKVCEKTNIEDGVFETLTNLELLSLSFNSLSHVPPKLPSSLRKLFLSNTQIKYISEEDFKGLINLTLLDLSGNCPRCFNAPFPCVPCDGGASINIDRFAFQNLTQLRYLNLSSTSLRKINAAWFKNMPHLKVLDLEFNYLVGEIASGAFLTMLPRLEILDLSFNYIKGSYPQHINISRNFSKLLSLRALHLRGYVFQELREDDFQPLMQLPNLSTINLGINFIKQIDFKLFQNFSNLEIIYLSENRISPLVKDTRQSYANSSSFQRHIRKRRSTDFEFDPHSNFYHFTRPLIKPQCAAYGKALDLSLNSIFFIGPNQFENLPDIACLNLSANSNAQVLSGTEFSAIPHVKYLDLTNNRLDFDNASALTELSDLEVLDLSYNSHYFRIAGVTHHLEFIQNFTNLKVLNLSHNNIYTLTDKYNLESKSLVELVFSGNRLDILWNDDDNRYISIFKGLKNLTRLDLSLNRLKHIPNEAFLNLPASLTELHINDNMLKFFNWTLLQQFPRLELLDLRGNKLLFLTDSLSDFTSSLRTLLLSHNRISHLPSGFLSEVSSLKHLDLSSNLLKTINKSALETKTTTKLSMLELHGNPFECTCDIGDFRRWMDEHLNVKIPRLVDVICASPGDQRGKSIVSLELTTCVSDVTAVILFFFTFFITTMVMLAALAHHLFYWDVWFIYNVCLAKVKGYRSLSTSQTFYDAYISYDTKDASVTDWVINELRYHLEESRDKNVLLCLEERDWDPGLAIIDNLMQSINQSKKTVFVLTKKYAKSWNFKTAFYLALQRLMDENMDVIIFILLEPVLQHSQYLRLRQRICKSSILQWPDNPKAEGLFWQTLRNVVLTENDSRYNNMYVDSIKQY
Nature of the test: In vitro human TLR8 binding reporter assay (HEK-Blue, NF-kB/AP1-inducible SEAP). The format is cell-based. As to conditions: activity range class, read-out: TLR8 Agonist EC50. An outline of the steps: as §1

The test system of the next test is THP-1 cells. Nature of the test: Measurement of IL-1β production, hTRF protocol (second alternative procedure), THP-1 cells. It counts as cell-based, human. The conditions noted are these: Homo sapiens. An outline of the steps: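 THP-1 cells differentiated overnight with 50 ng/ml PMA, then plated at 50,000 cells/well in RPMI with 2% FBS onto serial compound dilutions (top final concentration 10 μM) for 2 hours at 37° C. Supernatant IL-1β measured by hTRF (antibodies at 1:40, overnight at 4° C), read at 665/615 nm against a standard curve.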

Where [1] appears, read: THP-1, IL-1β production, human, read-out: NLRP3 hILIB EC50.

The results in this text go back to US12037344B2, “NLRP3 modulators” (INNATE TUMOR IMMUNITY, INC., priority 2018, dated 2024).

Where two headings read alike, the source gives them in different places.

For orientation: EC50 means the concentration giving half of the maximal effect. For the compound `Nc1nc2cc(-c3cc[nH]n3)ccc2c2c1cnn2C1CCOC1` (stereo not drawn) [Example 240], the EC50 is over 100 µM on TLR7, over 100 µM on TLR8 and 0.62 µM in the test on THP-1 cells (setting [1]).

`Nc1nc2cc(-c3cc[nH]n3)ccc2c2nn(C3COC3)cc12` [Example 241]: the EC50 at TLR7 was over 100 µM; on TLR8, over 100 µM; in the test with THP-1 cells (setting [1]), 0.46 µM.

`Nc1nc2cc(-c3cc[nH]n3)ccc2c2c1cnn2C1COC1` [Example 242]: the results for the EC50 on TLR7, at TLR8 and with THP-1 cells (setting [1]) were over 100 µM, over 100 µM and 0.68 µM, respectively.

With `Cc1nnc(Cn2cc3c(N)nc4cc(-c5cc[nH]n5)ccc4c3n2)o1` [Example 243], the EC50 on TLR7 is over 100 µM; on TLR8 it was over 100 µM; in the test with THP-1 cells (setting [1]), 1.39 µM.

On to `Cc1nnc(Cn2ncc3c(N)nc4cc(-c5cc[nH]n5)ccc4c32)o1` [Example 244], for which the EC50 on TLR7 is over 100 µM; at TLR8 it was over 100 µM; in the test with THP-1 cells (setting [1]) it was 1.8 µM.

As to `Nc1nc2cc(-c3cc[nH]n3)ccc2c2nn(CC(O)C(F)(F)F)cc12` (stereo not drawn) [Example 245], the values for the EC50 on TLR7, at TLR8 and in the test on THP-1 cells (setting [1]) were over 100 µM, over 100 µM and 0.94 µM, respectively.

Turning to `COC1CCC(n2cc3c(N)nc4cc(-c5cc[nH]n5)ccc4c3n2)C1` (stereo not drawn) [Example 246], the concentration for a half-maximal effect (EC50) at TLR7 is over 100 µM; on TLR8, over 100 µM; in the test with THP-1 cells (setting [1]), 0.58 µM.

As to `COCCn1cc2c(N)nc3cc(-n4cccn4)ccc3c2n1` [Example 247, 2-(2-methoxyethyl)-7-(1H-pyrazol-1-yl)-2H-pyrazolo[4,3-c]quinolin-4-amine], the values for the EC50 at TLR7, at TLR8 and with THP-1 cells (setting [1]) were over 100 µM, over 100 µM and 0.44 µM, respectively.

On to `COCCn1cc2c(N)nc3cc(-c4cccs4)ccc3c2n1` [Example 248, 2-(2-methoxyethyl)-7-(thiophen-2-yl)-2H-pyrazolo[4,3-c]quinolin-4-amine], for which the EC50 at TLR7 is over 100 µM; on TLR8, over 100 µM; with THP-1 cells (setting [1]), 0.65 µM.

`Nc1nc2cc(-n3cccn3)ccc2c2nn(CCO)cc12` [Example 249, 2-(4-amino-7-(1H-pyrazol-1-yl)-2H-pyrazolo[4,3-c]quinolin-2-yl)ethan-1-ol]: the EC50 on TLR7 is over 100 µM; on TLR8 it was over 100 µM; in the test on THP-1 cells (setting [1]) it was 0.64 µM.

Regarding `Nc1nc2cc(-n3cccn3)ccc2c2c1cnn2CCO` [Example 250, 2-(4-amino-7-(1H-pyrazol-1-yl)-1H-pyrazolo[4,3-c]quinolin-1-yl)ethan-1-ol], the EC50 on TLR7 was over 100 µM; on TLR8, over 100 µM; in the test with THP-1 cells (setting [1]) it was 1.95 µM.

For `Nc1nc2cc(-n3cccn3)ccc2c2nn(CCCO)cc12` [Example 251, 3-(4-amino-7-(1H-pyrazol-1-yl)-2H-pyrazolo[4,3-c]quinolin-2-yl)propan-1-ol], the values for the EC50 at TLR7, at TLR8 and in the test on THP-1 cells (setting [1]) were over 100 µM, over 100 µM and 0.62 µM, respectively.

For the compound `Nc1nc2cc(-n3cccn3)ccc2c2c1cnn2CCCO` [Example 252, 3-(4-amino-7-(1H-pyrazol-1-yl)-1H-pyrazolo[4,3-c]quinolin-1-yl)propan-1-ol], the EC50 at TLR7 was over 100 µM; on TLR8 it was over 100 µM; in the test on THP-1 cells (setting [1]), 1.13 µM.

For `CC(CO)n1cc2c(N)nc3cc(-c4ccn[nH]4)ccc3c2n1` (stereo not drawn) [Example 253, 2-[4-amino-7-(1H-pyrazol-5-yl)-2H-pyrazolo[4,3-c]quinolin-2-yl]propan-1-ol], the EC50 on TLR7 is over 100 µM; on TLR8, over 100 µM; with THP-1 cells (THP-1, read-out: NLRP3 hILIB EC50), 0.3 µM.

As for `CC(=O)NC(C)Cn1cc2c(N)nc3cc(-c4ccn[nH]4)ccc3c2n1` (stereo not drawn) [Example 254], the EC50 was over 100 µM at TLR7, over 100 µM at TLR8 and 20.3 µM with THP-1 cells (setting [1]).

With `Nc1nc2cc(-c3ccn[nH]3)ccc2c2nn(CC3COCCN3)cc12` (stereo not drawn) [Example 255], the EC50 was over 100 µM on TLR7, over 100 µM on TLR8 and 10.9 µM in the test on THP-1 cells (setting [1]).

On to `CC(=O)NC(C)(C)Cn1cc2c(N)nc3cc(-c4ccn[nH]4)ccc3c2n1` [Example 256], for which the EC50 at TLR7 is over 100 µM; at TLR8, over 100 µM; in the test with THP-1 cells (setting [1]) it was 0.53 µM.

`CC(N)Cn1cc2c(N)nc3cc(-c4ccn[nH]4)ccc3c2n1` (stereo not drawn) [Example 257]: the EC50 at TLR7 was over 100 µM; on TLR8, over 100 µM; with THP-1 cells (setting [1]) it was 0.86 µM.

Consider `CC(=O)N1CCCC1Cn1cc2c(N)nc3cc(-c4ccn[nH]4)ccc3c2n1` (stereo not drawn) [Example 258], for which the figures for the EC50 at TLR7, on TLR8 and in the test with THP-1 cells (setting [1]) were over 100 µM, over 100 µM and 1.78 µM, respectively.

With `CC(=O)N(C)CCn1cc2c(N)nc3cc(-c4ccn[nH]4)ccc3c2n1` [Example 259], the EC50 at TLR7 is over 100 µM; on TLR8 it was over 100 µM; in the test on THP-1 cells (setting [1]), 2.29 µM.

As for `Nc1nc2cc(-c3ccn[nH]3)ccc2c2nn(CCN3CCOCC3)cc12` [Example 260], the EC50 is over 100 µM at TLR7, over 100 µM on TLR8 and 5.76 µM with THP-1 cells (setting [1]).

Turning to `CN(C)CCn1cc2c(N)nc3cc(-c4ccn[nH]4)ccc3c2n1` [Example 261], the EC50 was over 100 µM at TLR7, over 100 µM on TLR8 and 1.29 µM in the test on THP-1 cells (setting [1]).

Take `CC(C)(Cn1cc2c(N)nc3cc(-c4ccn[nH]4)ccc3c2n1)NC(=O)C1CCCO1` (stereo not drawn) [Example 262]: the results for the EC50 at TLR7, on TLR8 and in the test with THP-1 cells (setting [1]) were over 100 µM, over 100 µM and 0.75 µM, respectively.

For `CCN1CCOCC1Cn1cc2c(N)nc3cc(-c4ccn[nH]4)ccc3c2n1` (stereo not drawn) [Example 263], the EC50 on TLR7 was over 100 µM; at TLR8 it was over 100 µM; in the test on THP-1 cells (setting [1]) it was 1.66 µM.

Regarding `CC(C)(F)C(=O)N1CCOCC1Cn1cc2c(N)nc3cc(-c4ccn[nH]4)ccc3c2n1` (stereo not drawn) [Example 264], the figures for the EC50 at TLR7, on TLR8 and in the test with THP-1 cells (setting [1]) were over 100 µM, over 100 µM and 0.99 µM, respectively.

With `COC1CCCN(CCn2cc3c(N)nc4cc(-c5ccn[nH]5)ccc4c3n2)C1` (stereo not drawn) [Example 265], the concentration for a half-maximal effect (EC50) is over 100 µM on TLR7, over 100 µM on TLR8 and 2.47 µM in the test on THP-1 cells (setting [1]).

As to `COC1CCN(CCn2cc3c(N)nc4cc(-c5ccn[nH]5)ccc4c3n2)C1` (stereo not drawn) [Example 266], the EC50 at TLR7 was over 100 µM; at TLR8 it was over 100 µM; in the test on THP-1 cells (setting [1]) it was 2.62 µM.

Take `CC(C)(N)Cn1cc2c(N)nc3cc(-c4ccn[nH]4)ccc3c2n1` [Example 267]: the EC50 on TLR7 was over 100 µM; at TLR8, over 100 µM; in the test on THP-1 cells (setting [1]), 1.07 µM.
